Data set [1] deals with Septoria tritici. Description: In vivo preventive test on Septoria tritici (wheat). To be noted: 500 ppm of active ingredient, evaluated 24 days after inoculation. How it is done:
(§1) Solvent: 5% by volume of Dimethyl sulfoxide
(§2) • 10% by volume of Acetone Emulsifier: 1 μl of Tween® 80 per mg of active ingredient
(§3) The active ingredients are made soluble and homogenized in a mixture of Dimethyl sulfoxide/Acetone/Tween® 80 and then diluted in water to the desired concentration.
(§4) The young plants of wheat are treated by spraying the active ingredient prepared as described above. Control plants are treated only with an aqueous solution of Acetone/Dimethyl sulfoxide/Tween® 80.
After 24 hours, the plants are contaminated by spraying the leaves with an aqueous suspension of Septoria tritici spores. The contaminated wheat plants are incubated for 72 hours at 18° C. and at 100% relative humidity and then for 21 days at 20° C. and at 90% relative humidity.
The test is evaluated 24 days after the inoculation. 0% means an efficacy which corresponds to that of the control plants while an efficacy of 100% means that no disease is observed.

In data set [2] the test system is Puccinia recondita. Description: In vivo preventive test on Puccinia recondita (brown rust on wheat). Particulars: evaluated 11 days after inoculation. Here is the method:
as §1, §2, §3, §4
After 24 hours, the plants are contaminated by spraying the leaves with an aqueous suspension of Puccinia recondita spores. The contaminated wheat plants are incubated for 24 hours at 20° C. and at 100% relative humidity and then for 10 days at 20° C. and at 70-80% relative humidity.
(§5) The test is evaluated 11 days after the inoculation. 0% means an efficacy which corresponds to that of the control plants while an efficacy of 100% means that no disease is observed.

The subject of data set [3] is Sphaerotheca fuliginea. Description: In vivo preventive test on Sphaerotheca fuliginea (powdery mildew on cucurbits). To be noted: gherkin, evaluated 15 days after inoculation. How it is done:
as §1, §2, §3
The young plants of gherkin are treated by spraying the active ingredient prepared as described above. Control plants are treated only with an aqueous solution of Acetone/Dimethyl sulfoxide/Tween® 80.
After 24 hours, the plants are contaminated by spraying the leaves with an aqueous suspension of Sphaerotheca fuliginea spores. The contaminated gherkin plants are incubated for 72 hours at 18° C. and at 100% relative humidity and then for 12 days at 20° C. and at 70-80% relative humidity.
The test is evaluated 15 days after the inoculation. 0% means an efficacy which corresponds to that of the control plants while an efficacy of 100% means that no disease is observed.

The test system of data set [4] is Uromyces appendiculatus. Description: In vivo preventive test on Uromyces appendiculatus (bean rust). Particulars: Uromyces appendiculatus, 264 h, 500 ppm, evaluated 11 days after inoculation, read-out: Efficacy. How it is done:
as §1, §2, §3
The young plants of bean are treated by spraying the active ingredient prepared as described above. Control plants are treated only with an aqueous solution of Acetone/Dimethyl sulfoxide/Tween® 80.
After 24 hours, the plants are contaminated by spraying the leaves with an aqueous suspension of Uromyces appendiculatus spores. The contaminated bean plants are incubated for 24 hours at 20° C. and at 100% relative humidity and then for 10 days at 20° C. and at 70-80% relative humidity.
as §5

A short description of data set [5]: log P by HPLC on reversed-phase column (C 18), EEC Directive 79/831 Annex V.A8. In kind it is physicochemical. Particulars: for logP: Table 1, HPLC C 18, 40° C., 0.1% aqueous formic acid and acetonitrile, gradient 10% to 90% acetonitrile, two values = mixture of endo and exo isomers. How it is done:
In table 1, the log P values were determined in accordance with EEC Directive 79/831 Annex V.A8 by HPLC (High Performance Liquid Chromatography) on a reversed-phase column (C 18), using the method described below:
Temperature: 40° C.; Mobile phases: 0.1% aqueous formic acid and acetonitrile; linear gradient from 10% acetonitrile to 90% acetonitrile.
Calibration was carried out using unbranched alkan-2-ones (comprising 3 to 16 carbon atoms) with known log P values (determination of the log P values by the retention times using linear interpolation between two successive alkanones). lambda-max-values were determined using UV-spectra from 200 nm to 400 nm and the peak values of the chromatographic signals.

Like-named read-outs stand apart in the source and are kept apart here. A value given as a limit tells only on which side of the number the result lay.

Usually logP stands for a log measure of how a compound divides between an organic and an aqueous phase. As a reminder, the chromatographic logP is lipophilicity estimated from chromatographic retention.

Consider `Cn1nc(C(F)F)c(C(=O)N(Cc2ccccc2C2CC3CCC2C3)C2CC2)c1Cl` (mixture of isomers) [I.02], for which the Efficacy in data set [1] worked out at 86%; in data set [2] (500 ppm of active ingredient) it was 88%; in data set [3] (500 ppm of active ingredient), 98%.
In turn, `O=C(c1ccsc1Br)N(Cc1ccccc1C1CC2CCC1C2)C1CC1` (mixture of isomers) [I.04] returned an Efficacy in data set [1] of 79%.
As for `Cc1nn(C)c(F)c1C(=O)N(Cc1ccccc1C1CCCC1)C1CC1` [CMP4, N-(2-cyclopentylbenzyl)-N-cyclopropyl-5-fluoro-1,3-dimethyl-1H-pyrazole-4-carboxamide, reference compound], the pest or weed control at 500 ppm in data set [4] (Table F2 comparison) was less than 40%.
Take `Cn1nc(C(F)F)c(C(=O)N(Cc2ccccc2C2CCCCC2)C2CC2)c1F` [CMP5, N-(2-cyclohexylbenzyl)-N-cyclopropyl-3-(difluoromethyl)-5-fluoro-1-methyl-1H-pyrazole-4-carboxamide, reference compound]: the pest or weed control at 500 ppm in data set [4] (Table F2 comparison) is less than 40%.
Turning to `Cn1cc(C(=O)N(Cc2ccccc2C2CCCCC2)C2CC2)c(C(F)F)n1` [CMP6, N-(2-cyclohexylbenzyl)-N-cyclopropyl-3-(difluoromethyl)-1-methyl-1H-pyrazole-4-carboxamide, reference compound], the pest or weed control at 500 ppm in data set [4] (Table F2 comparison) was less than 40%.
Same read-out and setting: in the case of `CC(c1ccccc1C1CCCC1)N(C(=O)c1c(C(F)F)nn(C)c1Cl)C1CC1` (stereo not drawn) [CMP7, 5-chloro-N-[1-(2-cyclopentylphenyl)ethyl]-N-cyclopropyl-3-(difluoromethyl)-1-methyl-1H-pyrazole-4-carboxamide, reference compound] it was less than 40%.
`CC(c1ccccc1C1=CCCCC1)N(C(=O)c1c(C(F)F)nn(C)c1F)C1CC1` (stereo not drawn) [CMP8, N-{1-[2-(cyclohex-1-en-1-yl)phenyl]ethyl}-N-cyclopropyl-3-(difluoromethyl)-5-fluoro-1-methyl-1H-pyrazole-4-carboxamide, reference compound]: in data set [4] (Table F3 comparison), the pest or weed control at 500 ppm is less than 55%.
Turning to `Cn1nc(C(F)F)c(C(=O)N(Cc2ccccc2C23CCCCC2C3(Cl)Cl)C2CC2)c1F` (stereo not drawn) [I.10], the Efficacy in data set [1] is reported as 88%; in data set [2] (500 ppm of active ingredient), 88%; in data set [3] (500 ppm of active ingredient) it was 100%. Besides, the logP in data set [5] is 4.82.
With `Cn1cc(C(=O)N(Cc2ccccc2C2=CC3CCC2(C)C3(C)C)C2CC2)c(C(F)(F)F)c1` (stereo not drawn) [I.22], the logP in data set [5] is on record as 5.72.
Take `Cn1nc(C(F)F)c(C(=O)N(Cc2cc(CC3C4CCC(C4)C3(C)C)ccc2C(C)(C)C)C2CC2)c1F` (stereo not drawn) [I.23]: the logP in data set [5] was determined as 7.09. For the same molecule, the Efficacy in data set [2] (at 100 ppm (note 1)) is listed as 79^(1) %; in data set [3] (at 100 ppm (note 1)), 100^(1) %.
Molecule `c1ccc(C2CC3CCC2C3)c(CNC2CC2)c1` (stereo not drawn) [IIa.1, N-[2-(bicyclo[2.2.1]hept-2-yl)benzyl]cyclopropanamine] returned a chromatographic logP in data set [5] (reversed-phase HPLC column (C 18), Table 2 (amines IIa), same HPLC method, broad signal) of 2.01.

Values taken from patent US9770022B2, “N-cycloalkyl-N-[(bicyclylphenyl)methylene]-(thio)carboxamide derivatives” (BAYER CROPSCIENCE AG, priority 2013, dated 2017).
